This passage reports IC50 and Selectivity results from ChEMBL document CHEMBL1146833, “A novel series of potent and selective IKK2 inhibitors” (Bioorg Med Chem Lett, 2004).

Structures are written as SMILES. Several values for one entry are separate records, joined by “and”; a condition that tells them apart may be missing. Equal values may be shown once.

The target of test [1] is T1, Inhibitor of nuclear factor kappa-B kinase subunit beta (Homo sapiens, UniProt O14920).
T1 sequence (O14920 whole entry): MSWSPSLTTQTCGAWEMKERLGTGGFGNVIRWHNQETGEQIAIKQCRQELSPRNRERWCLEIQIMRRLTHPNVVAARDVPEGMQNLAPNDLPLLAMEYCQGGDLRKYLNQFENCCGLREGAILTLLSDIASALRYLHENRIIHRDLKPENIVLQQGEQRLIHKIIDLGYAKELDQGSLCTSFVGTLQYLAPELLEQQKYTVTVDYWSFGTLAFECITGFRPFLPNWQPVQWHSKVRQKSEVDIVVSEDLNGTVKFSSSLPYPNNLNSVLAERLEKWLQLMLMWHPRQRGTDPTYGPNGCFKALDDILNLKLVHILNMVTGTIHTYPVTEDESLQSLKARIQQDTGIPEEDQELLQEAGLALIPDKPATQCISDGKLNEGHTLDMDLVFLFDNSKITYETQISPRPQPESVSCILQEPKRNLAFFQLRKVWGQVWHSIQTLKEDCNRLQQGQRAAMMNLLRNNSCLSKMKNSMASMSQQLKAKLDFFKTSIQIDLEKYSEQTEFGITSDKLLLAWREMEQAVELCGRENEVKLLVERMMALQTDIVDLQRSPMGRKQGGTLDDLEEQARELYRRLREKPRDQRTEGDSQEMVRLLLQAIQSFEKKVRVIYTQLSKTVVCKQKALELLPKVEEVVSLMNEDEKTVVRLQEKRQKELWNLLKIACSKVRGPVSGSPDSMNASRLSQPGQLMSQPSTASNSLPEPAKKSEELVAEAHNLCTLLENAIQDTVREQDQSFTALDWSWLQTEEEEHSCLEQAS
The test is described as follows: Inhibitory activity against IKK2.

Another test is filed under the species Homo sapiens. Kind of test: Selectivity for IKK2/IKK1.
The target of test [2] is T2, Inhibitor of nuclear factor kappa-B kinase subunit alpha (Homo sapiens, UniProt O15111).
T2 sequence (O15111 whole entry): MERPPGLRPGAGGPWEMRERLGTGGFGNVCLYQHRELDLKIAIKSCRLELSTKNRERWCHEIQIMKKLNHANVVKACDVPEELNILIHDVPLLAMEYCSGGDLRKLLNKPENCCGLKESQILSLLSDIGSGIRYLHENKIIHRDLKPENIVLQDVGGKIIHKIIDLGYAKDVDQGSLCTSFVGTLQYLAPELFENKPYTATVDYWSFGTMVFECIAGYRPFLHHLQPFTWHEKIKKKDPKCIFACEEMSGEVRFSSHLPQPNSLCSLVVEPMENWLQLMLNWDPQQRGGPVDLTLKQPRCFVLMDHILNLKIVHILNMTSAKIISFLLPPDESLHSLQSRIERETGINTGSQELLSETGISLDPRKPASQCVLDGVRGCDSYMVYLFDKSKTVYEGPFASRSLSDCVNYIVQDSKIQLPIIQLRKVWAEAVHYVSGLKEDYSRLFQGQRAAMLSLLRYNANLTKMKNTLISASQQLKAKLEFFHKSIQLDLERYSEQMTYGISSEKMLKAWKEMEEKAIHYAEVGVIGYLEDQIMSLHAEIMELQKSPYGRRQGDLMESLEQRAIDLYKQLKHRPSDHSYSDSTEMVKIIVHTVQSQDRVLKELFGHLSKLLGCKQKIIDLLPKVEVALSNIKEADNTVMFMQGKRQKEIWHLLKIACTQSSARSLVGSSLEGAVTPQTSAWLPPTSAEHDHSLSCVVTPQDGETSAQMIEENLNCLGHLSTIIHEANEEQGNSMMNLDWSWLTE
The test is described as follows: Inhibitory activity against IKK1.

Turning to `NC(=O)c1c[nH]c2ccc(-c3ccc(Nc4nccc(-c5ccc(S(=O)(=O)N6CCNCC6)cc5)n4)cc3)cc12`, the half-inhibitory concentration (IC50) in test [1] was 550 nM and 146 nM. For the same compound, the Selectivity in the test filed under Homo sapiens was 6.
In the case of `NS(=O)(=O)c1ccc(Nc2nccc(-c3ccc(S(=O)(=O)N4CCNCC4)cc3)n2)cc1`, the results for the IC50 in test [1] and in test [2] were 11 nM and 245 nM, respectively. The Selectivity in the test listed under Homo sapiens came out at 21.
Consider `C[S+]([O-])c1ccc(Nc2nccc(-c3ccc(S(=O)(=O)N4CCNCC4)cc3)n2)cc1` (stereo unspecified), for which the half-inhibitory concentration (IC50) in test [1] worked out at 91 nM; in test [2], 2340 nM. Moreover, in the test filed under Homo sapiens, the Selectivity amounted to 26.
As to `CC(=O)c1cc2cc(-c3ccc(Nc4nccc(-c5ccc(S(=O)(=O)N6CCNCC6)cc5)n4)cc3)ccc2o1`, the IC50 is 26 nM in test [1] and 1700 nM in test [2]. In the test listed under Homo sapiens, this compound returned a Selectivity of 65.
With `O=S(=O)(c1ccc(-c2ccnc(Nc3ccccc3)n2)cc1)N1CCNCC1`, the IC50 in test [1] worked out at 91 nM; in test [2] it was 1170 nM. The same compound gave a Selectivity in the test filed under Homo sapiens of 13.
`Cc1ccc(Nc2nccc(-c3ccc(S(=O)(=O)N4CCNCC4)cc3)n2)cc1`: the concentration for half-maximal inhibition (IC50) turned out to be 269 nM in test [1] and 2090 nM in test [2].
For `COc1ccc(Nc2nccc(-c3ccc(S(=O)(=O)N4CCNCC4)cc3)n2)cc1`, in that order: 214 nM and 1230 nM.
For `NC(=O)c1ccc(Nc2nccc(-c3ccc(S(=O)(=O)N4CCNCC4)cc3)n2)cc1`, the IC50 in test [1] is 48 nM; in test [2], 3980 nM. The Selectivity in the test filed under Homo sapiens was found to be 83.
The matching figures for `CCCCc1ccc(Nc2nccc(-c3ccc(S(=O)(=O)N4CCNCC4)cc3)n2)cc1`: 309 nM, 2690 nM and 9.
In the case of `N#Cc1cccc(Nc2nccc(-c3ccc(S(=O)(=O)N4CCNCC4)cc3)n2)c1`, the IC50 in test [1] amounted to 83 nM; in test [2], 5130 nM. The same compound gave a Selectivity in the test filed under Homo sapiens of 62.
Consider `O=[N+]([O-])c1ccc(Nc2nccc(-c3ccc(S(=O)(=O)N4CCNCC4)cc3)n2)cc1`, for which the half-maximal inhibitory concentration (IC50) in test [1] worked out at 66 nM; in test [2], 6920 nM. The Selectivity in the test listed under Homo sapiens was found to be 105.
As to `O=S(=O)(c1ccc(-c2ccnc(Nc3cc(F)cc(F)c3)n2)cc1)N1CCNCC1`, the 50% inhibitory concentration (IC50) in test [1] was determined as 117 nM; in test [2] it was 4070 nM.
As to `COc1cc(Nc2nccc(-c3ccc(S(=O)(=O)N4CCNCC4)cc3)n2)cc(OC)c1OC`, the IC50 in test [1] was 145 nM; in test [2] it was 155 nM. For the same compound, the Selectivity in the test filed under Homo sapiens came to 1.
For `NC(=O)Nc1ccc(Nc2nccc(-c3ccc(S(=O)(=O)N4CCNCC4)cc3)n2)cc1`, in that order: 155 nM, 1480 nM and 10.
`O=S(=O)(c1ccc(-c2ccnc(Nc3ccc(C(F)(F)F)cc3)n2)cc1)N1CCNCC1`: the IC50 is 513 nM in test [1] and 3980 nM in test [2]. The compound also gave a Selectivity in the test listed under Homo sapiens of 8.
